MIC and Activity data for one compound are collected here from ChEMBL document CHEMBL3397035, “Spectral and biological evaluation of a synthetic antimicrobial peptide derived from 1-aminocyclohexane carboxylic acid” (2015).

One assay relates to Staphylococcus aureus. Briefly: Antibacterial activity against methicillin-sensitive Staphylococcus aureus UAMS-1 after 24 hrs by standard broth microdilution method. It is filed as functional. Conditions: UAMS-1, 24 h. For orientation: In broth dilution the organism is exposed to a series of concentrations in liquid medium.
For the next assay, the system named is Acinetobacter baumannii. Briefly: Antibacterial activity against ampicillin, gentamicin, kanamycin, streptomycin, and tetracycline-resistant Acinetobacter baumannii WRAIR clinical isolate 13 after 24 hrs by standard broth microdilution method. It is filed as functional. To be noted: WRAIR clinical isolate 13, 24 h.
The test system of the next assay is Klebsiella pneumoniae. Briefly: Antibacterial activity against ampicillin, azithromycin, chloramphenicol, gentamicin, and tetracycline-resistant Klebsiella pneumoniae BAMS clinical isolate 07-18 after 24 hrs by standard broth microdilution method. It is filed as functional. Conditions: BAMS clinical isolate 07-18, 24 h.
For another assay, the system named is Pseudomonas aeruginosa. Description: Antibacterial activity against Pseudomonas aeruginosa PAO1 after 24 hrs by standard broth microdilution method. The assay is classed as functional. Conditions: PAO1, 24 h.
A further assay concerns Klebsiella aerogenes. Description: Antibacterial activity against Enterobacter aerogenes after 24 hrs by standard broth microdilution method. It is filed as functional.
The test system of the next assay is Enterococcus faecium. Description: Antibacterial activity against Enterococcus faecium MMC4 after 24 hrs by standard broth microdilution method. The assay is classed as functional. Conditions: MMC4, 24 h.
Assay [1] is described as follows: Binding affinity to 80 mM Dodecylphosphocholine micelles assessed as Lys connectivities with pH 4.4 sodium acetate buffer by TOCSY spectra.
The nature of assay [2]: Binding affinity to sodium dodecyl sulfate micelles assessed as Lys connectivities with pH 4.4 sodium acetate buffer by TOCSY spectra.
The test system of assay [3] is Lipid bilayer. Briefly: Binding affinity to 3.5 mM small unilamellar vesicles containing POPC with pH 6.8 sodium phosphate buffer by Far-UV-CD spectra.
The test system of assay [4] is Lipid bilayer. Briefly: Binding affinity to 3.5 mM small unilamellar vesicles containing 4:1 POPC/POPG with pH 6.8 sodium phosphate buffer by Far-UV-CD spectra.
Assay [5] deals with Lipid bilayer. Description: Binding affinity to 3.5 mM small unilamellar vesicles containing 60% POPE/21%POPG/19%POPC with pH 6.8 sodium phosphate buffer by Far-UV-CD spectra.
For assay [6], the system named is Lipopolysaccharide (LPS). Briefly: Binding affinity to lipopolysaccharides collected from Escherichia coli assessed as helical conformation with 40 mM sodium phosphate buffer at pH 6.8.
Assay [7] deals with Lipopolysaccharide (LPS). Briefly: Binding affinity to lipopolysaccharides collected from Pseudomonas aeruginosa assessed as helical conformation with 40 mM sodium phosphate buffer at pH 6.8.
For assay [8], the system named is Lipopolysaccharide (LPS). Description: Binding affinity to lipopolysaccharides collected from Klebsiella pneumoniae assessed as helical conformation with 40 mM sodium phosphate buffer at pH 6.8.

The term MIC denotes the least concentration at which growth counts as inhibited. A lower MIC goes with inhibition by little substance.

≈ marks a conversion by molar mass, not a printed value. Calls of active or inactive are those of the source. The calls are words filed in the database; no cut-off is given here. Square brackets hold non-standard residues; d marks the D form. Peptide text beside a SMILES is read from it. Ac6c = NC1(C(=O)O)CCCCC1

In the case of `CC(=O)NCC(=O)N[C@@H](Cc1ccccc1)C(=O)NC1(C(=O)NCC(=O)NC2(C(=O)N[C@@H](CCCCN)C(=O)NC3(C(=O)NCC(=O)NC4(C(=O)N[C@@H](Cc5ccccc5)C(=O)NC5(C(=O)NCC(=O)NC6(C(=O)NCC(=O)N[C@@H](CCCCN)C(=O)NC7(C(=O)N[C@@H](CCCCN)C(=O)N[C@@H](CCCCN)C(=O)N[C@@H](CCCCN)C(=O)N[C@@H](CCCCN)C(N)=O)CCCCC7)CCCCC6)CCCCC5)CCCCC4)CCCCC3)CCCCC2)CCCCC1` (Ac-GF[Ac6c]G[Ac6c]K[Ac6c]G[Ac6c]F[Ac6c]G[Ac6c]GK[Ac6c]KKKK-NH2), the MIC with Staphylococcus aureus was found to be 10.9 µM (≈ 24.9 µg/mL); against Acinetobacter baumannii, 10.9 µM (≈ 24.9 µg/mL); in the assay with Klebsiella pneumoniae, 43 µM (≈ 98.2 µg/mL); with Pseudomonas aeruginosa it was 21.9 µM (≈ 50 µg/mL); against Klebsiella aerogenes it was 21.9 µM (≈ 50 µg/mL); against Enterococcus faecium, 10.9 µM (≈ 24.9 µg/mL). Further, the outcome (in assay [1]; in assay [2]; in the assay on Lipid bilayer [4]; in the assay on Lipid bilayer [5]; in the assay with Lipopolysaccharide (LPS) [6]; with Lipopolysaccharide (LPS) [7]) was Active. Moreover, the outcome in the assay on Lipopolysaccharide (LPS) [8] was Active. Also, the result in the assay with Lipid bilayer [3] was inactive.
